Activity calls are given as the source filed them. No cut-off for these calls is given here.
Tests used:
Stomach [1] = experiment: Myorelaxant activity in New Zealand white rabbit gastric fundus smooth muscle assessed as relaxation of noradrenaline-induced contraction at 3 x 10^-4 M relative to control; assay type: functional; settings: Oryctolagus cuniculus
Stomach [2] = experiment: Myorelaxant activity in New Zealand white rabbit gastric fundus smooth muscle assessed as relaxation of noradrenaline-induced contraction; assay type: functional, Oryctolagus cuniculus
Stomach [3] = experiment: Myorelaxant activity in New Zealand white rabbit gastric fundus smooth muscle assessed as relaxation of noradrenaline-induced contraction in presence of indomethacin; assay type: functional, tissue-based; settings: Oryctolagus cuniculus
Stomach [4] = experiment: Myorelaxant activity in New Zealand white rabbit gastric fundus smooth muscle assessed as relaxation of noradrenaline-induced contraction in presence of propranolol; assay type: functional, tissue-based; settings: Oryctolagus cuniculus
Stomach [5] = experiment: Myorelaxant activity in New Zealand white rabbit gastric fundus smooth muscle assessed as relaxation of noradrenaline-induced contraction in presence of L-NAME; assay type: functional, tissue-based; settings: Oryctolagus cuniculus
Stomach [6] = experiment: Myorelaxant activity in New Zealand white rabbit gastric fundus smooth muscle assessed as relaxation of noradrenaline-induced contraction in presence of glibenclamide; assay type: functional, tissue-based; settings: Oryctolagus cuniculus
Stomach [7] = experiment: Myorelaxant activity in New Zealand white rabbit gastric fundus smooth muscle assessed as relaxation of noradrenaline-induced contraction in presence of tetraethylammonium chloride; assay type: functional, tissue-based; settings: Oryctolagus cuniculus

SMILES | Emax at 300 µM (Stomach [1]) | pD2 (Stomach [2]) | Activity (Stomach [3]) | Activity (Stomach [4]) | Emax (Stomach [1]) | Activity (Stomach [5]) | pD2 (Stomach [2]; Oryctolagus cuniculus) | Activity (Stomach [6]) | Activity (Stomach [7])
CC(N/C(=N\C#N)Nc1ccncc1)C(C)(C)C (stereo not given) [PINACIDIL ANHYDROUS] | 63.8% | 3.9 |  |  |  |  |  |  | 
Cn1cc(C2C3=C(CCCC3=O)NC3=C2C(=O)CCC3)c2ccccc21 |  |  | Active | Active | inactive | Active | inactive |  | 
O=C1CCCC2=C1C(c1c[nH]c3cc(Br)ccc13)C1=C(CCCC1=O)N2 |  |  | Active | Active | inactive | Active | inactive |  | 
Cn1c(C2C3=C(CCCC3=O)NC3=C2C(=O)CCC3)cc2ccccc21 |  |  | Active | Active | inactive | Active | inactive |  | 
CC1(C)CCC2=C(C1=O)C(c1c[nH]c3ccc(Br)cc13)C1=C(CCC(C)(C)C1=O)N2 | 17.5% | 4.46 |  |  |  |  |  | Active | Active
CC1(C)CCC2=C(C1=O)C(c1c[nH]c3cc(Br)ccc13)C1=C(CCC(C)(C)C1=O)N2 | 12% | 4.54 |  |  |  |  |  | Active | Active
O=C1CCCC2=C1C(c1c[nH]c3ccc(Br)cc13)C1=C(CCCC1=O)N2 |  |  | Active | Active | inactive | Active | inactive |  | 
Cn1cc(C2C3=C(CC(C)(C)CC3=O)NC3=C2C(=O)CC(C)(C)C3)c2ccccc21 | 28.6% | 4.28 |  |  |  |  |  | Active | Active
Cn1c(C2C3=C(CC(C)(C)CC3=O)NC3=C2C(=O)CC(C)(C)C3)cc2ccccc21 | 34% | 4.1 |  |  |  |  |  | Active | Active
Cn1c(C2C3=C(CCC(C)(C)C3=O)NC3=C2C(=O)C(C)(C)CC3)cc2ccccc21 | 11.6% | 4.6 |  |  |  |  |  | Active | Active
Cn1cc(C2C3=C(CCC(C)(C)C3=O)NC3=C2C(=O)C(C)(C)CC3)c2ccccc21 |  |  | Active | Active | inactive | Active | inactive |  | 
CC1(C)CC(=O)C2=C(C1)NC1=C(C(=O)CC(C)(C)C1)C2c1c[nH]c2cc(Br)ccc12 | 52.7% | 4.25 |  |  |  |  |  | Active | Active
CC1(C)CC(=O)C2=C(C1)NC1=C(C(=O)CC(C)(C)C1)C2c1c[nH]c2ccc(Br)cc12 | 71.5% | 3.85 |  |  |  |  |  | Active | Active
